This note sets out measurements from ChEMBL document CHEMBL5625170, “Design, synthesis, and biological evaluation of novel penindolone derivatives as potential inhibitors of hemagglutinin-mediated membrane fusion” (Eur J Med Chem, 2023).

Bounds are passed on as bounds.

As a reminder, the IC50 is the point on the concentration scale where inhibition reaches its midpoint.

The assay deals with Influenza A virus. In words: Anti-viral activity against Influenza A virus amantadine-resistant strain (A/Puerto Rico/8/34) infected in MDCK cells assessed as inhibition of virus cytopathic effect measured after 48 hrs by crystal violet staining based assay. Format: functional, organism-based. Particulars: A/Puerto Rico/8/34, MDCK.

In the case of `CC(=O)c1cc(C)c(O)c(Cc2[nH]c3cc(-c4c5ccccc5c(-c5ccccc5)c5ccccc45)ccc3c2Cc2c(O)c(C)cc(C(C)=O)c2O)c1O`, the half-maximal inhibitory concentration (IC50) is more than 30 µM.

`CCOC(=O)C1=C[C@@H](OC(CC)CC)[C@H](NC(C)=O)[C@@H](N)C1` [OSELTAMIVIR]: the IC50 was 11.4 µM.
